Measured values taken from publication PMC10138714, “Evaluation of Some Safety Parameters of Dual Histamine H3 and Sigma-2 Receptor Ligands with Anti-Obesity Potential” (International Journal of Molecular Sciences, 2023).

What was measured:
mice [1] = test: Motor coordination in the chimney test; type: in vivo, male Albino Swiss (CD-1) mice; settings: for % of Mice Impaired: chimney test, 30 min after injection, n = 8
Method: (§1) Blood pressure measurement and ECG were performed on male Wistar rats weighing 200–220 g (six months old). Locomotor activity and chimney tests were performed on adult male Albino Swiss (CD-1) mice weighing 18–22 g ([…]). The animals were obtained from an accredited animal house at the Faculty of Pharmacy, Jagiellonian University Medical College, Krakow, Poland. The experimental groups consisted of 6–8 animals. The animals were housed in constant temperature (22–24 °C) and humidity (40–60%) facilities, exposed to 12:12 h light/dark cycles, and were maintained on a standard pellet diet with tap water available ad libitum. Rats and mice were housed in pairs or 8 animals per home cage, respectively.
The effect of tested compounds on motor impairment were quantified with the chimney test of Boissier et al. (1960). The mice were trained before the test, and only the animals able to get out of the chimney within 1 min were used at the experimental stage. The selected mice were placed in a 25 cm-long and 2.5 cm in diameter […] tube, which was reversed so that the mice could leave it only by climbing up backward until they reached the other end. The test was performed 30 min after injection (i.p.) of the examined compounds. Motor impairment was indicated by the inability of the animals to climb up backwards in the transparent tube within 60 s.

rats = test: Heart rate and ECG intervals in rats; type: in vivo, male Wistar rats; settings: 10 mg/kg i.p.
Method: as §1
In vivo electrocardiographic measurements were performed using an ASPEL ASCARD B5 apparatus, standard lead II, and a paper speed of 50 mm/s. The study was carried out after a single administration of the test compounds (10 mg/kg i.p.). […] The following parameters were then calculated and analyzed: duration of PQ, QT, QRS, RR intervals, and heart rate.

normotensive rats = test: Blood pressure in anesthetized normotensive rats (carotid artery cannulation); type: in vivo, male Wistar rats
Method: as §1
Rats were anesthetized with thiopental (70 mg/kg) via i.p. injection. The left carotid artery was cannulated with polyethylene tubing filled with a heparin solution in saline to facilitate pressure measurements using a PowerLab Apparatus (ADInstruments, Sydney, Australia). After a 20 min stabilization period, the test compounds were administered i.p. at a dose of 10 mg/kg b.w. in a constant volume of 1 mL/kg b.w. Blood pressure was recorded immediately before administration and 5, 10, 15, 20, 30, 40, 50, and 60 min after the administration of the test compound [47].

[2] = molecular target: T1, human ERG potassium channel (Kv11.1) (Homo sapiens, UniProt Q12809); test: Whole-cell automated patch clamp (QPatch16X), inhibition of hERG currents; type: cell-based; settings: for IC50: CHO cells stably expressing human ERG, whole-cell, mean of three experiments, read-out: Mean IC50 ± SEM, inhibition of hERG currents; for Inhibition of hERG compared with verapamil: relative to reference compound verapamil
T1 construct: expressed in transfected cells
T1 sequence (Q12809 whole entry): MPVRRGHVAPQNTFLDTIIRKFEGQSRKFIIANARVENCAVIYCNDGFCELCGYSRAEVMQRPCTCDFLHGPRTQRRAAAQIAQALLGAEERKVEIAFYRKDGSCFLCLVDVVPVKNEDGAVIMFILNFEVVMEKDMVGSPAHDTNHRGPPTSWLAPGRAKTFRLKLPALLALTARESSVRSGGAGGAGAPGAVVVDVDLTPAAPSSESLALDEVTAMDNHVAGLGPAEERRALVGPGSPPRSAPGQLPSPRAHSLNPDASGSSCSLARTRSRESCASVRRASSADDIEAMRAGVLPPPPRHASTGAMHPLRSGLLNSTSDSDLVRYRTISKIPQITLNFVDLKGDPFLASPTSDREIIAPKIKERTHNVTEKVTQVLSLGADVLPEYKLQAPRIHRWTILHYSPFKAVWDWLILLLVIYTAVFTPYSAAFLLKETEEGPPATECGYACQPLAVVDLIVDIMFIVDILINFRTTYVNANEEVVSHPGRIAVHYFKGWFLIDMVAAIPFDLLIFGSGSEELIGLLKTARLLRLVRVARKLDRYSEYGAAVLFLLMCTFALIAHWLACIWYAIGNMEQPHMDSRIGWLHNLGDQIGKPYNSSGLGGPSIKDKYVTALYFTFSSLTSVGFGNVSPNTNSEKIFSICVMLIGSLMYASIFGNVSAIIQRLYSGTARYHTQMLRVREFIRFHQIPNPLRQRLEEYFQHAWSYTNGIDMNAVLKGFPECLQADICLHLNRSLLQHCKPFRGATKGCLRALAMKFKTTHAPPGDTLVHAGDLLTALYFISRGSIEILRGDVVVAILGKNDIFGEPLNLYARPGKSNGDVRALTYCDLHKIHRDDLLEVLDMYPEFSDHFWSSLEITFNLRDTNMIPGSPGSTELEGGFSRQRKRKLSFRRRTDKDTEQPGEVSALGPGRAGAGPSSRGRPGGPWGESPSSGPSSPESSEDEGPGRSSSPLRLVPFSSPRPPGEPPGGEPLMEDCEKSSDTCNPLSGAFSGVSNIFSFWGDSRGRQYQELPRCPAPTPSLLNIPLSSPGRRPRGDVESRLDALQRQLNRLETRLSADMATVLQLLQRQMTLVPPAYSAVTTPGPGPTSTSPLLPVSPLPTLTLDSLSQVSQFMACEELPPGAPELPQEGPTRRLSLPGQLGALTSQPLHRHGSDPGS
Method: Electrophysiology experiments were performed on a QPatch16X automatic patch clamp platform (Sophion Bioscience, Ballerup, Denmark). Chinese hamster ovary (CHO) cells stably expressing the human ERG potassium channel (Kv11.1) were cultured using standard procedures. On the day of the experiment, cells were collected from the culture flask using TrypLE Express solution (Life Technologies, Thermo Fisher Scientific, Carlsbad, California, United States) and resuspended in EX-CELL ACF CHO serum-free medium (Merck KGaA, Sigma-Aldrich, Darmstadt, Germany), supplemented with 25 mM HEPES, 100 U/mL penicillin/streptomycin, and 0.04 mg/mL soybean trypsin inhibitor (all components from Sigma Aldrich).
The cells were placed in the lidless microtube and located onboard the automated electrophysiology instrument, where they were automatically relocated to a built-in centrifuge.
Cells were transferred to pipetting wells of single-use 16-channel planar patch chip plates (QPlate 16X, Sophion Bioscience, Ballerup, Denmark) and gigaseals were formed upon application of a combined suction/voltage protocol in a standard protocol supplied by Sophion Bioscience for CHO cells. Once the whole-cell mode was obtained, the cells were kept in a holding potential of -90 mV between the programmed stimulation protocols.
Whole-cell potassium currents were measured in response to repeatedly executed voltage protocols constituted of the following steps: brief clamping to −50 mV (200 ms), subsequent depolarization to 20 mV for 4000 ms, and final repolarization to −50 mV when the outward tail current was measured for 4000 ms.
The average current peak values determined in the presence of particular concentrations of the compound tested were subjected to a sigmoidal dose–response curve fitting, where the bottom plateau parameter was constrained to 0. The IC50 values were then calculated from the obtained sigmoidal dose–response curves. Data were analyzed using QPatch Assay Software (v5.0, Sophion Bioscience, Ballerup, Denmark) and represent the mean of three experiments carried out on distinct cells.

[3] = test system: rats fed a palatable diet; test: Plasma AlaT, AspaT, gGT and ALP activity after repeated administration in rats fed a palatable diet; type: in vivo; settings: 10 mg/kg b.w. i.p. repeated; for Plasma AlaT activity: vs vehicle control fed palatable feed; for Plasma AspaT activity: relative to both control groups (standard or palatable feed); for Plasma gGT activity: vs palatable feed-fed control group
Method: Standard diet ( 8% fats, 67% carbohydrates, and 25% proteins) contained 100 g feed—280 kcal. Rats fed a palatable diet had access to a diet consisting of milk chocolate with nuts, cheese, salted peanuts, and 7% condensed milk and simultaneously to standard feed (Labofeed B, Morawski Manufacturer Feed, Kcynia, Poland) for 4 weeks. The feeding was not in any way forced, and rats decided themselves when, what, and how much to eat. A palatable diet contained 100 g of peanuts—612 kcal; 100 mL of condensed milk—131 kcal; 100 g of milk chocolate—529 kcal; and 100 g of cheese—325 kcal.
The study evaluating the activities of alanine aminotransferase (AlaT), aspartate aminotransferase (AspaT), gamma-glutamyl transpeptidases (gGT), and alkaline phosphatase (ALP) was carried out after completing the excessive eating model experiments described in our previous work. Compounds were administered for twenty-eight days at a dose of 10 mg/kg b.w./day. On the 31st day of the experiment, 20 min after i.p. administration of heparin (5000 units/rat) and thiopental (70 mg/kg b.w.), blood was collected from the left carotid artery and then centrifuged at 600× g (15 min, 4 °C) in order to obtain the plasma. To determine the activities of AlaT, AapaT, gGT, and ALP in the plasma samples, a standard enzymatic spectrophotometric test (Biomaxima S.A., Lublin, Poland) was used.

mice [4] = test: Locomotor activity in mice (activity cages, photobeam breaks); type: in vivo, male Albino Swiss (CD-1) mice; settings: vs vehicle group
Method: as §1
Locomotor activity was individually recorded for each animal using specifically designed activity cages made of clear Perspex (40 cm × 40 cm × 31 cm, Activity Cage 7441, Ugo Basile, Italy). The cages were supplied with I.R. horizontal beam emitters connected to a counter that records the light-beam interruptions. The compounds suspensions were administered as i.p. injections 30 min before testing. Control animals received injections of vehicles. Each mouse was placed in a cage for a 30 min habituation period. After that time, the number of breaks in the photobeams was measured for 5 min, which is the same time as the observation period used in other tests.

σ2R = molecular target: σ2R; parameters: method as in PMID 34908391; settings: cited from earlier work
σ1R = molecular target: σ1R; parameters: method as in PMID 34908391; settings: cited from earlier work; for σ1/σ2: ratio of Ki values
H3R = molecular target: H3R; parameters: method as in PMID 34908391; settings: cited from earlier work; for H3/σ1 / H3/σ2: ratio of Ki values
[5] = single i.p. 10 mg/kg b.w., 30–60 min after administration
[6] = vs control group fed standard feed

SMILES	% of Mice Impaired (mice [1]; 10 mg/kg i.p.)	% of Mice Impaired (mice [1]; 20 mg/kg i.p.)	% of Mice Impaired (mice [1]; 30 mg/kg i.p.)	Heart rate (rats; time 0 min)	PQ (rats; time 0 min)	QRS (rats; time 0 min)	QT (rats; time 0 min)	Heart rate (rats; time 15 min)	PQ (rats; time 15 min)	QRS (rats; time 15 min)	QT (rats; time 15 min)	Heart rate (rats; time 30 min)	PQ (rats; time 30 min)	QRS (rats; time 30 min)	QT (rats; time 30 min)	Heart rate (rats; time 45 min)	PQ (rats; time 45 min)	QRS (rats; time 45 min)	QT (rats; time 45 min)	Heart rate (rats; time 60 min)	other results
CCC(=O)c1ccc(OCCCCCCCCN2CCN(c3ccncc3)CC2)cc1 [KSK-74]	0%	12.5%	12.5%	381.8 ± 19.9 beats/min	56.3 ± 4.1 ms	20.0 ± 0.0 ms	62.5 ± 4.3 ms	356.3 ± 18.9 beats/min	53.8 ± 4.1 ms	20.0 ± 0.0 ms	60.0 ± 5.0 ms	355.3 ± 32.2 beats/min	56.3 ± 2.2 ms	20.0 ± 0.0 ms	61.3 ± 6.5 ms	364.6 ± 18.1 beats/min	57.5 ± 2.5 ms	20.0 ± 0.0 ms	65.0 ± 6.1 ms	370.8 ± 23.9 beats/min	PQ (rats; time 60 min): 55.0 ± 5.0 ms; QRS (rats; time 60 min): 20.0 ± 0.0 ms; QT (rats; time 60 min): 62.5 ± 8.3 ms; Decrease of diastolic blood pressure (normotensive rats; [5]): 10–13 mmHg; Decrease of systolic blood pressure (normotensive rats; [5]): approx. 12 mmHg; IC50 [2]: 3400 ± 289 nM; Inhibition of hERG compared with verapamil [2]: almost seven times weaker; Plasma AlaT activity [3]: lower; Plasma ALP activity ([3]; vs vehicle group with palatable feed): lower plasma ALP activity; Locomotor activity (mice [4]; single i.p. 10 mg/kg b.w., 30 min before test): significantly increased; Locomotor activity (mice [4]; single i.p. 30 mg/kg b.w.): No significant changes; Ki (σ2R): 65.9 nM; Ki (σ1R): 274 nM; σ1/σ2 (σ1R): 4.16; Ki (H3R): 38.9 nM; H3/σ1 (H3R): 0.14; H3/σ2 (H3R): 0.59
O=C(c1ccccc1)c1ccc(OCCCN2CCN(c3ccncc3)CC2)cc1 [KSK-63]	0%	0%	0%	393.8 ± 34.8 beats/min	57.5 ± 2.5 ms	20.0 ± 0.0 ms	63.3 ± 5.1 ms	362.8 ± 38.0 beats/min	55.0 ± 5.0 ms	20.0 ± 0.0 ms	64.4 ± 2.6 ms	365.2 ± 34.8 beats/min	58.75 ± 1.3 ms	20.0 ± 0.0 ms	65.3 ± 4.7 ms	344.3 ± 30.8 beats/min	55.0 ± 5.0 ms	20 ± 0.0 ms	62.1 ± 1.6 ms	344.3 ± 30.8 beats/min	PQ (rats; time 60 min): 62.5 ± 2.1 ms; QRS (rats; time 60 min): 20.0 ± 0.0 ms; QT (rats; time 60 min): 65.2 ± 3.6 ms; Increase of systolic blood pressure (normotensive rats; single i.p. 10 mg/kg b.w., 5, 10 and 20 min after administration): 16–22 mmHg; IC50 [2]: 570 ± 50 nM; Inhibition of hERG compared with verapamil [2]: close to the reference compound; Plasma AspaT activity [3]: higher AspaT activity; Plasma ALP activity [3, 6]: greater ALP activity; Plasma gGT activity [3]: statistically lower gGT activity; Plasma AlaT activity [3]: lower; Locomotor activity (mice [4]; single i.p. 30 mg/kg b.w.): significant decrease; Ki (σ2R): 29.2 nM; Ki (σ1R): 726 nM; σ1/σ2 (σ1R): 24.83; H3/σ1 (H3R): 0.004; H3/σ2 (H3R): 0.11
c1ccc(-c2ccc(OCCCN3CCN(c4ccncc4)CC3)cc2)cc1 [KSK-61]	25%	12.5%	25%	373.2 ± 20.3 beats/min	53 ± 1.6 ms	20.8 ± 0.8 ms	56.3 ± 4.1 ms	369.5 ± 9.5 beats/min	52.8 ± 1.5 ms	21.5 ± 0.5 ms	56.3 ± 2.2 ms	380.2 ± 30.5 beats/min	54.5 ± 3.5 ms	21.8 ± 1.1 ms	58.8 ± 2.2 ms	349.5 ± 21.3 beats/min	53.3 ± 1.8 ms	21.8 ± 0.8 ms	57.5 ± 4.3 ms	360.4 ± 20.3 beats/min	Effect on motor coordination (chimney test) (mice [1]; mice, 10-30 mg/kg i.p., Fisher exact probability test): decreases the ability to exit the chimney at all doses tested in one or two mice per group; PQ (rats; time 60 min): 53 ± 1.6 ms; QRS (rats; time 60 min): 21.8 ± 0.4 ms; QT (rats; time 60 min): 55 ± 5.0 ms; Effect on blood pressure (normotensive rats; single i.p. 10 mg/kg b.w., vs vehicle (1% Tween 80)): did not affect blood pressure; IC50 [2]: 2660 ± 217 nM; Inhibition of hERG compared with verapamil [2]: about five times weaker; Plasma AspaT activity [3]: higher AspaT activity; Plasma ALP activity [3, 6]: greater ALP activity; Plasma gGT activity [3]: statistically lower gGT activity; Locomotor activity (mice [4]; single i.p. 30 mg/kg b.w.): significant decrease; Ki (σ2R): 108 nM; Ki (σ1R): 638 nM; σ1/σ2 (σ1R): 5.90; Ki (H3R): 21.1 nM; H3/σ1 (H3R): 0.03; H3/σ2 (H3R): 0.20
